From PubChem BioAssay AID1996 come the findings set out here.

Values after ≈ are worked out from the molar mass of the structure shown.

For the data set the following is noted: buffer; pH 7.4; 200.0 µM.
`Cc1ccc(N2CC(C)Cn3c2nc2c3c(=O)[nH]c(=O)n2C)cc1` (stereo unspecified) displayed a kinetic solubility of 8.8 µg/mL (≈ 27 µM).
The value for `O=S(=O)(Nc1c(F)cccc1F)c1ccc2c(c1)OCCO2` was 2.5 µg/mL (≈ 7.64 µM); that for `CC1C=CCC2C(=O)N(c3ccc(OC(=O)c4ccco4)cc3)C(=O)C12` (stereo unspecified) was 18 µg/mL (≈ 51.2 µM).
The value for `COc1ccc(NC(=O)c2cc(-c3ccco3)nc3ccccc23)cc1` was under 0.4 µg/mL; that for `CC(=O)C1=C(C)NC(=O)CC1c1ccc(F)cc1` (stereo unspecified) was over 37.1 µg/mL.
Regarding `Cn1c(N)c(C(=O)CSc2nnc(N)s2)c(=O)n(C)c1=O`, the kinetic solubility is over 49.3 µg/mL.
The value for `CCn1ncc(S(=O)(=O)Nc2cc(Cl)ccc2C)c1C` was over 47.1 µg/mL; that for `CCC(=NCCN1CCOCC1)c1c(O)n(C2CCCCC2)c(=O)[nH]c1=O` was 52.6 µg/mL (≈ 139 µM); that for `CCCCCCC1CC(=O)NC(=O)N1` (stereo unspecified) was 27.8 µg/mL (≈ 140 µM).
Then `COc1ccc(NC(=O)Cc2ccc(Cl)c(Cl)c2)cn1`, with 8.9 µg/mL (≈ 28.6 µM).
The value for `CC12CCC(=O)N1C(C(=O)Nc1ccc(F)cc1)CS2` (stereo unspecified) was over 44.2 µg/mL; that for `Cc1cccc(C(=O)N/C(=C\c2ccco2)C(=O)N2CCCCCC2)c1` was 50.3 µg/mL (≈ 143 µM); that for `N#Cc1c(Cl)cccc1N1CCC(C(N)=O)CC1` was over 39.6 µg/mL.
For the molecule `COc1ccc(Oc2ncccc2[N+](=O)[O-])cc1`, the solubility (kinetic) was over 36.9 µg/mL.
The value for `CN1CCN(C(=O)C23CCC(C)(C(=O)C2Br)C3(C)C)CC1` (stereo unspecified) was over 53.6 µg/mL.
Then `Cc1nn(CC(=O)NC2CC2)c(C)c1S(=O)(=O)NC(C)(C)C`, with over 49.3 µg/mL; and `Nc1cc(C(F)(F)F)ccc1NCCc1ccccn1`, with 36.8 µg/mL (≈ 131 µM).
Then `O=C(COC(=O)/C=C/c1cc(Br)ccc1F)NC1CC1`, with 7 µg/mL (≈ 20.5 µM); and `O=C(CN1CCc2ccccc2C1)Nc1ccccc1Cl`, with 8.7 µg/mL (≈ 28.9 µM); and `COc1cc2c(cc1OC)CN(C(=O)CCC(=O)c1ccc(F)cc1)CC2`, with over 55.7 µg/mL.
For the molecule `Cc1ccc(-c2ccc(CO)o2)cc1N`, the kinetic solubility was over 30.5 µg/mL.
The value for `CC(=O)N1CC(=O)Nc2ccc(F)cc2C1c1ccccc1` (stereo unspecified) was over 44.7 µg/mL; that for `O=C(O)/C=C\C(=O)Nc1ccc(OC(F)F)cc1` was 35.5 µg/mL (≈ 138 µM).
The value for `CC(=O)Nc1ccc(N/C=C/C(=O)c2ccc(Cl)cc2)cc1` was 2.4 µg/mL (≈ 7.62 µM).
The value for `CC(C)c1ccc(NC(=O)/C(C#N)=C/c2ccncc2)cc1` was 4.6 µg/mL (≈ 15.8 µM).
As for `O=C(O)C1C2C=CC(C2)C1C(=O)Nc1cccc(Cl)c1` (stereo unspecified), the kinetic solubility turned out to be 42.8 µg/mL (≈ 147 µM). This solubility kinetic lies about 9.3-fold higher than the previous one.
The value for `Cc1cc2oc(C(=O)NCc3ccccc3)cc(=O)c2cc1C` was 0.9 µg/mL (≈ 2.93 µM); that for `O=C(COc1ccccc1Cl)NCCCNC(=O)c1cccnc1` was over 52.2 µg/mL.
`COc1cccc(OC)c1C(=O)NC(=O)Nc1c(C)cccc1C` registered a solubility (kinetic) of 5.2 µg/mL (≈ 15.8 µM).
Regarding `Cn1c(N)cc(-c2ccc(F)cc2)c(C#N)c1=O`, the kinetic solubility is over 36.5 µg/mL.
As to `O=C1Nc2ccccc2N2CCCC12` (stereo unspecified), the solubility (kinetic) amounted to 27.5 µg/mL (≈ 146 µM).
As for `CCOc1ccccc1Nc1nnc(SCC(=O)N(C)C2CCS(=O)(=O)C2)s1` (stereo unspecified), the solubility (kinetic) was over 66.4 µg/mL.
The value for `COc1ccc(Nc2ccncc2[N+](=O)[O-])cc1` was over 36.8 µg/mL.
The value for `O=[N+]([O-])c1cccc(S(=O)(=O)NC2CC3CCC2C3)c1` (stereo unspecified) was 42.8 µg/mL (≈ 144 µM); that for `Oc1ccc(N2CCN(CC(O)c3ccccc3)CC2)cc1` (stereo unspecified) was over 44.8 µg/mL.
Then `CCOc1cc(CNc2ccc(N3CCCC3)cc2)cc(Cl)c1OC`, with under 0.4 µg/mL; and `O=C(OCC(=O)N(CCc1ccccc1)Cc1ccccc1)c1cccc(O)c1`, with 2.6 µg/mL (≈ 6.68 µM).
In turn, `CC(C)(C)N(Cc1ccccc1)C(=O)CN1C(=O)c2ccccc2S1(=O)=O` displayed a solubility (kinetic) of 15.7 µg/mL (≈ 40.6 µM). This solubility kinetic lies about 6-fold higher than the previous one.
The value for `COc1ccc(Cl)cc1N=Cc1c(O)n(C)c(=O)n(C)c1=O` was 2 µg/mL (≈ 6.18 µM); that for `CCOc1ccc(/C=C/C(=O)NC2CCCCC2)cc1` was under 0.6 µg/mL; that for `CC(NC(=S)Nc1cccc(C(F)(F)F)c1)C(C)(C)C` (stereo unspecified) was 4.6 µg/mL (≈ 15.1 µM).
